Experimental findings from ChEMBL document CHEMBL1667729, “Malyngamide 2, an oxidized lipopeptide with nitric oxide inhibiting activity from a Papua New Guinea marine cyanobacterium” (J Nat Prod, 2011) are described below.

SMILES strings stand for the structures. Calls of active or inactive are those of the source. No cut-off for these calls is given here. Numbered stars: 1 amine (or outer) side, 2 acyl side, 3 side chain; on linkers, the order of the positions; unused ones are H or OH. Square brackets hold non-standard residues; d marks the D form. Peptide text beside a SMILES is read from it. PheOxz = O=C(c1coc([C@H](Cc2ccccc2)N[*:1])n1)[*:2]; X2 = CC[C@H](C)[C@H](N[*:1])c1nc(C(=O)[*:2])co1; X1 = Cc1oc([C@@H](N[*:1])C(C)C)nc1C(=O)[*:2]

The test system of assay [1] is NCI-H460. Nature of the assay: Cytotoxicity against human H460 cells. The class given is functional, cell-based.
Assay [2] relates to RAW264.7. Nature of the assay: Cytotoxicity against mouse RAW264.7 cells at 21 uM. To be noted: read-out: Survival. Format: functional.
Assay [3] deals with RAW264.7. Nature of the assay: Anti-inflammatory activity against mouse RAW264.7 cells assessed as inhibition of LPS-induced NO production after 24 hrs. Format: functional, cell-based. Particulars: RAW264.7, 24 h.
The test system of assay [4] is Neuro2a. Nature of the assay: Inhibition of voltage-gated sodium channel in mouse Neuro2a cells at 17.5 uM.

As a reminder, the IC50 is the concentration at which inhibition is half-maximal.

With `CCCCCCC[C@@H](C/C=C/CCC(=O)NC/C(=C/Cl)[C@@H]1C(=O)[C@H](O)C[C@@H](O)[C@]1(C)O)OC` [MALYNGAMIDE], the IC50 in assay [1] worked out at 27.3 µM; in assay [3], 8 µM. Besides, in assay [2], the viability at 21 µM turned out to be 94%.

`CC[C@H](C)[C@@H]1NC(=O)[C@@H]2CCCN2C(=O)[C@H](Cc2ccccc2)NC(=O)c2coc(n2)[C@H](Cc2ccccc2)NC(=O)c2nc(oc2C)[C@H](C(C)C)NC(=O)CNC(=O)[C@@H]2CCCN2C(=O)[C@@H]2CCCN2C(=O)[C@H](C)NC(=O)c2coc1n2` [WEWAKAZOLE] (cyclo(APPG[X1][PheOxz]FP[X2])) had an IC50 in assay [1] of 10.1 µM. In addition, in assay [4], the inhibition result is “inactive”.
